Data: article PMC7278695, “Dual SMO/BRAF Inhibition by Flavonolignans from Silybum marianum” (Antioxidants, 2020)

Columns and labels:
BRAF V600E kinase = target: T1, BRAF V600E kinase (Homo sapiens, UniProt P15056, V600E); test: BRAF (V600E) Kinase Assay Kit, Kinase-Glo luminescence; type: biochemical; conditions: 45 min at 30 °C
T1 construct: purchased BPS Bioscience #48688
Procedure: The activities of silybins and dehydrosilybins were tested using a commercial BRAF (V600E) (serine/threonine-protein kinase B-raf, V600E mutant) Kinase Assay Kit (#48688, BPS Bioscience, San Diego, CA, USA). Briefly, the BRAF (V600E) enzyme was incubated for 45 min at 30 °C with five different concentrations of each tested compound in logarithmic dilutions (1000, 100, 10, 1, and 0.1 µM). The reaction mixture was prepared following the instructions of the producer. The luminescence of the product of the enzyme activity was measured with the Kinase-Glo MAX Kit (#V6071, Promega, Madison, WI, USA) at a microplate luminometer (Synergy Multi-Mode Reader, BioTek, Winooski, VT, USA). Higher luminescent signal corresponded to […] enzyme activity. […] The reaction mixture without the test inhibitor represented the positive control, whereas the mixture without the test inhibitor and without the enzyme was used as blank.
The experiments for evaluation of the BRAF inhibition and cytotoxicity were performed in triplicate. The IC50 values were calculated by the BfROpenLab’s non-linear regression nodes in the KNIME analytics platform with the constant slope model.

[1] = test system: A-375 skin melanoma malignant cells with BRAF V600E mutation; test: MTT cytotoxicity assay, A-375; type: cell-based; conditions: Homo sapiens, 72 h, read-out: IC50 (95% Confidence Interval), A-375
Procedure: (§1) The cytotoxic activity of the tested compounds was evaluated on non-tumorigenic human keratinocytes (HaCaT, #300493), skin melanoma malignant cells with BRAF V600E mutation (A-375, #300110), and skin epidermoid carcinoma cells (A-431, #300112), all purchased from CLS Cell Lines Service (Eppelheim, Germany). The cell lines were maintained in DMEM (#DMEM-HPA, Capricorn®, Ebsdorfergrund, Germany) supplemented with 10% fetal bovine serum (#FBS-HI-12A, Capricorn®, Ebsdorfergrund, Germany) and 4 mM L-glutamine (#G7513, Merck (Sigma-Aldrich), Germany) and incubated under standard conditions (5% CO2, 37 °C, 90%-95% humidity). The experiments were performed between passages 4 and 15 whereby the cells were sub-cultured every 4th day by splitting 1:8, according to the protocol of the biobank. Briefly, the cell cultures were rinsed with PBS without calcium and magnesium (PBS, #D8537, Merck (Sigma-Aldrich), Germany) and incubated for 8-10 min with accutase (#ACC-1B, Capricorn®, Ebsdorfergrund, Germany) as a detachment agent. After centrifugation, the cells were counted with trypan blue (0.4% solution, #T8154, Merck (Sigma-Aldrich), Germany). The antiproliferative effects of SilA, SilB, […], and DHSilB were tested using the MTT-dye (3-(4,5-dimethylthiazol-2-yl)-2,5-diphenyltetrazolium bromide) assay according to ISO 10993-5-2009, Annex C [26]. Briefly, the cells were seeded in 96-well plates at a density of 0.1 × 10^6/mL, incubated for 24 h at 37 °C (5% CO2), and treated with ten concentrations of the compounds ranging from 3.9 to 1000 μM in twofold serial dilutions. After 72 h, the MTT-dye (#M5655-1G, Merck (Sigma-Aldrich), Germany) was added to each sample at a final concentration of 0.05 mg/mL and the plates were incubated for 2 h at 37 °C (5% CO2). The supernatant was aspirated, and the formazan crystals formed as a product of the enzymatic MTT reduction were dissolved in 2-propranol (#33539, Merck (Sigma-Aldrich), Germany) supplemented with 5% formic acid (#300415, […]/Neuber, Sofia, Bulgaria). The absorbance of the product was measured at 550 nm (reference filter 690 nm) on an ELISA Reader BioTek ELx800 (BioTek). The experiments for evaluation of the BRAF inhibition and cytotoxicity were performed in triplicate. The IC50 values were calculated by the BfROpenLab's non-linear regression nodes in the KNIME analytics platform with the constant slope model.

[2] = test system: A-431 skin epidermoid carcinoma cells; test: MTT cytotoxicity assay, A-431; type: cell-based; conditions: Homo sapiens, 72 h, read-out: IC50 (95% Confidence Interval), A-431
Procedure: as §1

[3] = test system: HaCaT non-tumorigenic human keratinocytes; test: MTT cytotoxicity assay, HaCaT; type: cell-based; conditions: 72 h, read-out: IC50 (95% Confidence Interval), HaCaT
Procedure: as §1

[4] = test system: Hedgehog signaling pathway in NIH3T3 Shh-Light II cells; test: HH-dependent (Gli-responsive) luciferase reporter assay; type: cell-based; conditions: SAG 200 nM, 48 h; for HH inhibitory activity (in words): maximum concentration of 30 μM
Procedure: The luciferase assay was carried out in NIH3T3 Shh-Light II cells, stably incorporating a Gli-responsive luciferase reporter and the pRL-TK Renilla, treated with SAG (SMO Agonist, 200 nM, Alexis Biochemicals Farmingdale, NY, USA) and the selected compounds for 48 h. Luciferases activities from P. pyralisand and R. reniformis were assayed with a dual-luciferase assay system, according to the manufacturer’s instructions (Biotium Inc., Hayward, CA, USA). The results were expressed as a P. pyralisand/R. reniformis luciferase ratio and represent the mean ± S.D. of three experiments, each performed in triplicate.
With respect to the SMO receptor, the HH inhibitory activity of the compounds, alone and in a racemate, was investigated in a luciferase reporter assay, which is widely used for characterizing HH inhibitors. The HH inhibitory activity of synthesized molecules was evaluated in NIH3T3 Shh Light II cells, stably incorporating a Gli-responsive firefly luciferase treated with the synthetic SMO agonist SAG [32], alone and in combination with the tested compounds.

[5] = target: T2, Human Myc-DDK-tagged SMO in HEK293T cells (Homo sapiens, UniProt Q99835); test: BODIPY-Cyclopamine binding (displacement) assay; conditions: BC 5 nM, 2 h at 37 °C
T2 construct: Myc; DDK (FLAG); expressed in transfected cells; host or cells: HEK293T
T2 sequence (Q99835 28-787): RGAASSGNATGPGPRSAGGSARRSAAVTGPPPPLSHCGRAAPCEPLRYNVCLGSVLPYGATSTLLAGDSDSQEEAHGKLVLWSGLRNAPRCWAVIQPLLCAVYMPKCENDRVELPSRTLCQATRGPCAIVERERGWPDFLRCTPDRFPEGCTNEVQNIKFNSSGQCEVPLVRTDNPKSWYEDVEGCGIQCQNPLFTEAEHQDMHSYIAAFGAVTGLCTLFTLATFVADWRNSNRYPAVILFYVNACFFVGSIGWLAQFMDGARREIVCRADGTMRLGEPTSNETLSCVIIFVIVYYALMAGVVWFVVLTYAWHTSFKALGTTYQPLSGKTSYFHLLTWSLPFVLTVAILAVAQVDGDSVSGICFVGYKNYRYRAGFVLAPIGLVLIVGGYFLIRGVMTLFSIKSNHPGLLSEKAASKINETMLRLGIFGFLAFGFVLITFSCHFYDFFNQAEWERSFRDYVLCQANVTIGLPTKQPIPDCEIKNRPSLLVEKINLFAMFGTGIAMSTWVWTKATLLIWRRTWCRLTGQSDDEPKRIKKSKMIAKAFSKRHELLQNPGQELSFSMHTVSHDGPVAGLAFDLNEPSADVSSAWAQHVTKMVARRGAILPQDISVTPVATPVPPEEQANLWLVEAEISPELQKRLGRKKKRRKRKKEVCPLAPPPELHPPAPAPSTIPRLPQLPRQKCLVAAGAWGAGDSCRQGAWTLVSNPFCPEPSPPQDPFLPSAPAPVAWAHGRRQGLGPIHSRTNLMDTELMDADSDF
Procedure: Human Myc-DDK-tagged SMO or empty vector was transfected in HEK293T cells. Cells were washed in phosphate-buffered saline (PBS) supplemented with 0.5% fetal bovine serum, fixed in 4% paraformaldehyde in PBS for 10 min, and incubated for 2 h at 37 °C, both in the same medium supplemented with BODIPY-Cyclopamine (BioVision Inc., San Francisco, CA, USA) (BC, 5 nM) and the studied compounds. The cells were permeabilized with Triton X100 (Sigma-Aldrich, St. Louis, MO, USA) 0.2%, and Hoechst reagent was used for cell nuclei staining. Data were expressed as a percentage of BC incorporation observed with BC alone.
To further investigate the binding properties of the selected compounds to the SMO receptor, we performed a displacement assay based on the use of BODIPY-Cyclopamine, which is known to interact with the binding site of SMO antagonists located within the heptahelical bundle of the receptor. To this aim, HEK293T cells were transiently transfected for expression of SMO and then incubated with BC in the presence or absence of increased amounts of DHSilA or DHSilAB.

T1 sequence (P15056 whole entry V600E): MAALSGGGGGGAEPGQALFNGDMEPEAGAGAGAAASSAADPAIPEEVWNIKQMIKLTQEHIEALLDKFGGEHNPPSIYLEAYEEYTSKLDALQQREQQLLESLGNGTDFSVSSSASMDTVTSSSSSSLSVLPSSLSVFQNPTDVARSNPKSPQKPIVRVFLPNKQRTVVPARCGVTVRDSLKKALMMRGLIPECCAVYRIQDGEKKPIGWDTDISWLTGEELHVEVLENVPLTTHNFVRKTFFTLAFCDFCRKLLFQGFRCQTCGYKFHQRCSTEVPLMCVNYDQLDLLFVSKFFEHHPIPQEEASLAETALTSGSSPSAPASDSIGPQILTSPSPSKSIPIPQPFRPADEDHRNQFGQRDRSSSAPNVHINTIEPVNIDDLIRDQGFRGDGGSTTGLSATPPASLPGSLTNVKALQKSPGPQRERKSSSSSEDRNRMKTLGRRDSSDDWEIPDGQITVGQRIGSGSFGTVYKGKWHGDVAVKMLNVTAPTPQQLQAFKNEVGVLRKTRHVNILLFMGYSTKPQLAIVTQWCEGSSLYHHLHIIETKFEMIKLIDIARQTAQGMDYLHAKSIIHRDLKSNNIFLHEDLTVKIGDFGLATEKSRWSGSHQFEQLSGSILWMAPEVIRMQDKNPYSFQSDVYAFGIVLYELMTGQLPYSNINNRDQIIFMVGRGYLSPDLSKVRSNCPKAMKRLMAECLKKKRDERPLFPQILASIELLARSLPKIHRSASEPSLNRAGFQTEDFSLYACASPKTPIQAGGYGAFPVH

In the case of `COc1cc([C@H]2Oc3cc(-c4oc5cc(O)cc(O)c5c(=O)c4O)ccc3O[C@@H]2CO)ccc1O` [DHSilA, 2,3-dehydrosilybin A], the IC50 (BRAF V600E kinase) is reported as 70.6 µM, the IC50 [1] is reported as 83 µM and the IC50 [2] is reported as 97 µM. For the same compound, the IC50 [3] was 231 µM, the “HH inhibitory activity (in words)” value [4] was “high activity” and the IC50 ([4]; read-out: IC50, HH inhibitory activity) was 5 to 10 µM. For the same compound, the “Inhibition of BODIPY-Cyclopamine (BC) binding to cells expressing SMO” value [5] was “inhibited BC binding to cells expressing SMO in a dose-dependent manner”.
`COc1cc([C@@H]2Oc3cc([C@H]4Oc5cc(O)cc(O)c5C(=O)[C@@H]4O)ccc3O[C@H]2CO)ccc1O` [SilB, silybin B] gave an IC50 (BRAF V600E kinase) of 73.9 µM, an IC50 [1] of 120 µM and an IC50 [2] of 166 µM. For the same compound, the IC50 [3] was 150 µM and the “HH inhibitory activity (in words)” value [4] was “mild activity”.
`COc1cc([C@H]2Oc3cc([C@H]4Oc5cc(O)cc(O)c5C(=O)[C@@H]4O)ccc3O[C@@H]2CO)ccc1O` [SilA, silybin A] was tested, and the IC50 (BRAF V600E kinase) was 104 µM, the IC50 [1] was 97 µM and the IC50 [2] was 126 µM. The IC50 [3] was 120 µM and the “HH inhibitory activity (in words)” value [4] was “mild activity”.
`COc1cc([C@@H]2Oc3cc(-c4oc5cc(O)cc(O)c5c(=O)c4O)ccc3O[C@H]2CO)ccc1O` [DHSilB, 2,3-dehydrosilybin B] gave an IC50 (BRAF V600E kinase) of 24.9 µM, an IC50 [1] of 86 µM and an IC50 [2] of 130 µM. The IC50 [3] was 164 µM and the “HH inhibitory activity (in words)” value [4] was “inactive”.
